Experimental data taken from US20220062243A1, “P14-Kinase Inhibitors with Anti-Cancer Activity” (The Board of Trustees of the Leland Stanford Junior …, priority 2019, published 2022).

Target: PI4K-IIIβ (Homo sapiens, UniProt Q9UBF8)
Assay: PI-kinase assay (membrane capture assay for lipid kinase activity), PI4KIIIβ
Format: biochemical
Details: read-out: PI4KIIIβ kinase activity (IC50 class)
Protocol: PI4-kinase inhibition can be determined by a kinase activity assay, e.g., by an assay that determines the level of incorporation of radiolabeled phosphate from [γ-^32P]-ATP into a substrate molecule after treatment with a subject compound, relative to a control, by measuring the beta-particle emission rate using a scintillation counter or phosphorimaging.
PI-kinase assay: Compounds are tested in C.1.1. PI kinase assays as described by Shokat et al., “A membrane capture assay for lipid kinase activity.” Nat. Protoc. […] Selected compounds of Table 1 and 2 were prepared and tested for inhibition activity in a variety of kinase assays.

Chain of PI4K-IIIβ (Q9UBF8 whole entry): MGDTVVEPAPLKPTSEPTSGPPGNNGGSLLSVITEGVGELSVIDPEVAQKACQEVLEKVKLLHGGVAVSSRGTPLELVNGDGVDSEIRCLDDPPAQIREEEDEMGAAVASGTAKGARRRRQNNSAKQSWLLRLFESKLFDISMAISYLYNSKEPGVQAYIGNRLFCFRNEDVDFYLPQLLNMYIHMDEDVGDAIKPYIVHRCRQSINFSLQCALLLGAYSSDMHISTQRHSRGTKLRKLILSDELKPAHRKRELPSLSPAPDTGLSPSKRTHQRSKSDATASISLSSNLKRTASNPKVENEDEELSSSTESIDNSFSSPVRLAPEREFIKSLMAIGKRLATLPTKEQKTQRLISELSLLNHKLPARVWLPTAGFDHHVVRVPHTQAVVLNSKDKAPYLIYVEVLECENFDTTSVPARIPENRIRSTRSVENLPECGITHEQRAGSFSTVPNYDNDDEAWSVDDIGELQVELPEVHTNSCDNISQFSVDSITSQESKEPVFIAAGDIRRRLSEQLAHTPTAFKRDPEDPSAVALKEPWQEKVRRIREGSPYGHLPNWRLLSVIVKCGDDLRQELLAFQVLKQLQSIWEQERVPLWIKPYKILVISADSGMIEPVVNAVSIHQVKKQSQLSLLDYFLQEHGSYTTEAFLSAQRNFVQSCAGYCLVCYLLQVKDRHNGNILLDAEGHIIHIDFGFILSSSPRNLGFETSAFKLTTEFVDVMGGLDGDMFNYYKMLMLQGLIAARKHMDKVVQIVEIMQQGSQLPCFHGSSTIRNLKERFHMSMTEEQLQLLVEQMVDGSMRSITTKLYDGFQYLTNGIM

SMILES | IC50 [nM]
COc1ccc(-c2sc(NCC3CCCCC3)nc2C)cc1S(=O)(=O)NCC1CCCCC1 [Compound S-128, N-(cyclohexylmethyl)-5-[2-(cyclohexylmethylamino)-4-methyl-thiazol-5-yl]-2-methoxy-benzenesulfonamide] | 100 to 1000
COc1ccc(-c2sc(NC3CCCCCC3)nc2C)cc1S(=O)(=O)Nc1c(C)cccc1C [Compound S-98, 5-[2-(cycloheptylamino)-4-methyl-thiazol-5-yl]-N-(2,6-dimethylphenyl)-2-methoxy-benzenesulfonamide;2,2,2-trifluoroacetic acid] | < 100
COc1ccc(-c2sc(NC(=O)CC3CCOCC3)nc2C)cc1S(=O)(=O)Nc1cc(C)cc(O)c1 [Compound S-169, N-[5-[3-[(3-hydroxy-5-methyl-phenyl)sulfamoyl]-4-methoxy-phenyl]-4-methyl-thiazol-2-yl]-2-tetrahydropyran-4-yl-acetamide] | < 100
COc1ccc(-c2sc(N[C@@H](C)C3CCCCC3)nc2C)cc1S(=O)(=O)N[C@H]1CC[C@@H](O)CC1 [Compound S-206, 5-[2-[[(1S)-1-cyclohexylethyl]amino]-4-methyl-thiazol-5-yl]-N-(4-hydroxycyclohexyl)-2-methoxy-benzenesulfonamide] | 1000 to 10000
COc1ccc(-c2sc(NC(=O)CC3CCOCC3)nc2C)cc1S(=O)(=O)Nc1cccc(C)c1 [Compound S-226, N-[5-[4-methoxy-3-(m-tolylsulfamoyl)phenyl]-4-methyl-thiazol-2-yl]-2-tetrahydropyran-4-yl-acetamide] | < 100
COc1ccc(-c2sc(NC(C)(C)C)nc2C)cc1S(=O)(=O)NC1CCNCC1 [Compound S-219, 5-[2-(tert-butylamino)-4-methyl-thiazol-5-yl]-2-methoxy-N-(4-piperidyl)benzenesulfonamide] | < 100
COc1ccc(-c2sc(N[C@H](C)C3CCCCC3)nc2C)cc1S(=O)(=O)N[C@H]1CCNC1 [Compound S-201, 5-[2-[[(1R)-1-cyclohexylethyl]amino]-4-methyl-thiazol-5-yl]-2-methoxy-N-[(3S)-pyrrolidin-3-yl]benzenesulfonamide] | < 100
COc1ccc(-c2sc(NC(=O)CC3CCOCC3)nc2C)cc1S(=O)(=O)Nc1ccc(O)cc1 [Compound S-227, N-[5-[3-[(4-hydroxyphenyl)sulfamoyl]-4-methoxy-phenyl]-4-methyl-thiazol-2-yl]-2-tetrahydropyran-4-yl-acetamide] | < 100
COc1ccc(-c2sc(NC(C)(C)C)nc2C)cc1S(=O)(=O)N[C@H]1CC[C@H](O)CC1 [Compound S-216, 5-[2-(tert-butylamino)-4-methyl-thiazol-5-yl]-N-(4-hydroxycyclohexyl)-2-methoxy-benzenesulfonamide] | < 100
COc1ccc(-c2sc(NC(=O)CCC3CCCC3)nc2C)cc1S(=O)(=O)N[C@H]1CC[C@H](O)CC1 [Compound S-156, 3-cyclopentyl-N-[5-[3-[(4-hydroxycyclohexyl)sulfamoyl]-4-methoxy-phenyl]-4-methyl-thiazol-2-yl]propanamide] | < 100
COc1ncc(-c2sc(NC(=O)CC3CCOCC3)nc2C)cc1S(=O)(=O)NC1CCCC(O)C1 (centres unmarked) [Compound S-263] | < 100
COc1ccc(-c2sc(N[C@H](C)C3CCCCC3)nc2C)cc1S(=O)(=O)NC1CCCNC1 (stereo partly drawn) [Compound S-148, 5-[2-[[(1R)-1-cyclohexylethyl]amino]-4-methyl-thiazol-5-yl]-2-methoxy-N-(3-piperidyl)benzenesulfonamide] | < 100
COc1ccc(-c2sc(NC(=O)CCC3CCCC3)nc2C)cc1S(=O)(=O)NC1CCNCC1 [Compound S-160, 3-cyclopentyl-N-[5-[4-methoxy-3-(4piperidylsulfamoyl)phenyl]-4-methyl-thiazol-2-yl]propanamide] | < 100
COc1ccc(-c2sc(NCC3CCCCC3)nc2C)cc1S(=O)(=O)NC1CCN(C2CCCC2)CC1 [Compound S-133, 5-[2-(cyclohexylmethylamino)-4-methyl-thiazol-5-yl]-N-(1-cyclopentyl-4-piperidyl)-2-methoxy-benzenesulfonamide] | < 100
COc1ccc(-c2sc(NCC3CCCCC3)nc2C)cc1S(=O)(=O)NC1CCN(C(C)C)CC1 [Compound S-134, 5-[2-(cyclohexylmethylamino)-4-methyl-thiazol-5-yl]-N-(1-isopropyl-4-piperidyl)-2-methoxy-benzenesulfonamide] | < 100
COc1ccc(-c2sc(NC(=O)CC3CCCC3)nc2C)cc1S(=O)(=O)NCCCCO [Compound S-152] | < 100
COc1ccc(-c2sc(NCC3CCCCC3)nc2C)cc1S(=O)(=O)NC1CCCC(O)C1 (centres unmarked) [Compound S-199, 5-[2-(cyclohexylmethylamino)-4-methyl-thiazol-5-yl]-N-(3-hydroxycyclohexyl)-2-methoxy-benzenesulfonamide] | < 100
COc1ccc(-c2sc(N[C@H](C)CC3CCCCC3)nc2C)cc1S(=O)(=O)NC1CCNCC1 [Compound S-145, 5-[2-[[(1R)-2-cyclohexyl-1-methyl-ethyl]amino]-4-methyl-thiazol-5-yl]-2-methoxy-N-(4-piperidyl)benzenesulfonamide] | < 100

The remaining lines, values ahead:

IC50 [nM] | SMILES
< 100 | Cc1ccc(-c2sc(NC(=O)CC3CCCC3)nc2C)cc1S(=O)(=O)NC1CCCNC1 (centres unmarked) [Compound S-189, 2-cyclopentyl-N-[4-methyl-5-[4-methyl-3-(3-piperidylsulfamoyl)phenyl]thiazol-2-yl]acetamide]
< 100 | COc1ccc(-c2sc(NC(=O)CC3CCOCC3)nc2C)cc1S(=O)(=O)Nc1ccc(O)cc1C [Compound S-231, N-[5-[3-[(4-hydroxy-2-methyl-phenyl)sulfamoyl]-4-methoxy-phenyl]-4-methyl-thiazol-2-yl]-2-tetrahydropyran-4-yl-acetamide]
< 100 | COc1ccc(-c2sc(NC(=O)CC3CCOCC3)nc2C)cc1S(=O)(=O)Nc1ccc(F)cc1 [Compound S-170, N-[5-[3-[(4-fluorophenyl)sulfamoyl]-4-methoxy-phenyl]-4-methyl-thiazol-2-yl]-2-tetrahydropyran-4-yl-acetamide]
< 100 | COc1ccc(-c2sc(NCC3CCCCC3)nc2C)cc1S(=O)(=O)NC1CCNCC1 [Compound S-123, 5-[2-(cyclohexylmethylamino)-4-methyl-thiazol-5-yl]-2-methoxy-N-(4-piperidyl)benzenesulfonamide]
< 100 | COc1ccc(-c2sc(NC(=O)C3CCCC3)nc2C)cc1S(=O)(=O)Nc1ccc(CO)cc1 [Compound S-41, N-[5-[3-[[4-(hydroxymethyl)phenyl]sulfamoyl]-4-methoxy-phenyl]-4-methyl-thiazol-2-yl]cyclopentanecarboxamide]
< 100 | COc1ccc(-c2sc(NC(C)(C)C)nc2C)cc1S(=O)(=O)NC1CCCNC1 (centres unmarked) [Compound S-220, 5-[2-(tert-butylamino)-4-methyl-thiazol-5-yl]-2-methoxy-N-(3-piperidyl)benzenesulfonamide]
< 100 | COc1ccc(-c2sc(NCCC3CCCCC3)nc2C)cc1S(=O)(=O)NC1CCNCC1 [Compound S-202, 5-[2-(2-cyclohexylethylamino)-4-methyl-thiazol-5-yl]-2-methoxy-N-(4-piperidyl)benzenesulfonamide]
< 100 | Cc1ccc(-c2sc(NC(=O)CC3CCCC3)nc2C)cc1S(=O)(=O)NC1CCNCC1 [Compound S-188, 2-cyclopentyl-N-[4-methyl-5-[4-methyl-3-(4-piperidylsulfamoyl)phenyl]thiazol-2-yl]acetamide]
< 100 | COc1ccc(-c2sc(NC(=O)C3CCCC3)nc2C)cc1S(=O)(=O)N[C@H]1CC[C@H](O)CC1 [Compound S-9, N-[5-[3-[(4-hydroxycyclohexyl)sulfamoyl]-4-methoxy-phenyl]-4-methyl-thiazol-2-yl]cyclopentanecarboxamide]
< 100 | COc1ccc(-c2sc(NC3CCCCC3)nc2C)cc1S(=O)(=O)N[C@H]1CC[C@H](O)CC1 [Compound S-166, 5-[2-(cyclohexylamino)-4-methyl-thiazol-5-yl]-N-(4-hydroxycyclohexyl)-2-methoxy-benzenesulfonamide]
< 100 | COc1ccc(-c2sc(NC(C)(C)C)nc2C)cc1S(=O)(=O)NC1CCCC(O)C1 (centres unmarked) [Compound S-218, 5-[2-(tert-butylamino)-4-methyl-thiazol-5-yl]-N-(3-hydroxycyclohexyl)-2-methoxy-benzenesulfonamide]
100 to 1000 | COc1ccc(-c2sc(NCCC3CCCCC3)nc2C)cc1S(=O)(=O)NC1CCC(O)C1 (centres unmarked) [Compound S-214, 5-[2-(2-cyclohexylethylamino)-4-methyl-thiazol-5-yl]-N-(3-hydroxycyclopentyl)-2-methoxy-benzenesulfonamide]
< 100 | COc1ncc(-c2sc(NC(=O)CC3CCOCC3)nc2C)cc1S(=O)(=O)Nc1cccc(C(=O)O)c1 [Compound S-265]
100 to 1000 | COc1ccc(-c2sc(NC3CCCCC3)nc2C)cc1S(=O)(=O)NC1CCCC1 [Compound S-129, 5-[2-(cyclohexylamino)-4-methyl-thiazol-5-yl]-N-cyclopentyl-2-methoxy-benzenesulfonamide]
< 100 | COc1ccc(-c2sc(NC(C)C)nc2C)cc1S(=O)(=O)N[C@H]1CC[C@H](O)CC1 [Compound S-215, N-(4-hydroxycyclohexyl)-5-[2-(isopropylamino)-4-methyl-thiazol-5-yl]-2-methoxy-benzenesulfonamide]
< 100 | COc1ccc(-c2sc(NC(=O)CC3CCCC3)nc2C)cc1S(=O)(=O)N[C@H]1CC[C@H](O)CC1 [Compound S-151, 2-cyclopentyl-N-[5-[3-[(4-hydroxycyclohexyl)sulfamoyl]-4-methoxy-phenyl]-4-methyl-thiazol-2-yl]acetamide]
< 100 | COc1ncc(-c2sc(NC(=O)CC3CCOCC3)nc2C)cc1S(=O)(=O)Nc1cccc(O)c1 [Compound S-259]
